ChEMBL document CHEMBL1121952, “Directional probes of the hydrophobic component of the aromatic ring binding site of norepinephrine N-methyltransferase” (J Med Chem, 1982)
Values belong to the molecule of their own block, whether it stands above or below them.

Legend:
[1] = Vmax/Km x100 value of the compound; assay type: ADME
[2] = molecular target: T1, Phenylethanolamine N-methyltransferase (Bos taurus, UniProt P10938); assay: (§1) The inhibitory constant(Ki) value for Norepinephrine N-methyl-transferase was calculated
T1 sequence (P10938 whole entry): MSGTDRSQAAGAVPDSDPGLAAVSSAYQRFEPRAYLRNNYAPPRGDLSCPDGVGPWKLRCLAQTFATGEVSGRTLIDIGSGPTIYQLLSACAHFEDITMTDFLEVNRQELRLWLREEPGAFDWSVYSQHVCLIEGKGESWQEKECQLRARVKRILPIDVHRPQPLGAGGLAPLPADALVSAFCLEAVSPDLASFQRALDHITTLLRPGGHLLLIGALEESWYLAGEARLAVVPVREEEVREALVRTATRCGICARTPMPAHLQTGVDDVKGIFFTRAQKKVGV

[3] = compound: NCC(O)c1cccc2ccccc12; assay: as §1
[4] = compound: NCC(O)c1ccc(-c2ccccc2)cc1; assay: as §1
[5] = compound: NCC(O)c1cccc(-c2ccccc2)c1; assay: as §1
[6] = compound: NCC(O)c1ccc2ccccc2c1; assay: as §1

Vmax / Kmax100 [1]: 1.42
Molecule: NCC(O)c1cccc(-c2ccccc2)c1 (stereo not drawn)

Vmax / Kmax100 [1]: 5.44
Molecule: NCC(O)c1ccc(-c2ccccc2)cc1 (stereo not drawn)

Ki [2]: 89 µM
Molecule: CC(N)c1cccc(-c2ccccc2)c1 (stereo not drawn)

Vmax / Kmax100 [1]: 5.6
Molecule: NCC(O)c1ccc2ccccc2c1 (stereo not drawn)

Molecule: CC(N)Cc1cccc(-c2ccccc2)c1 (stereo not drawn)
Ki [2]: > 2000 µM

Molecule: NC[C@@H](O)c1ccccc1
Vmax / Kmax100 [1]: 1.62

Ki [2]: 737 µM
Molecule: CC(N)c1ccc(-c2ccccc2)cc1 (stereo not drawn)

Vmax / Kmax100 [1]: 1.29
Molecule: NCC(O)c1cccc2ccccc12 (stereo not drawn)

Molecule: CC(N)Cc1ccc(-c2ccccc2)cc1 (stereo not drawn)
Ki [2]: 262 µM

B1: Phenylethanolamine N-methyltransferase (Bos taurus), P10938 (protein)
chain: T1 sequence (P10938 whole entry)
Km [3]: 132 µM
Km [4]: 64 µM
Km [5]: 656 µM
Km [6]: 20 µM
